pIC50: −log10 of the molar value. Where two headings read alike, the source gives them in different places.
Columns and labels:
Format in all cases: cell-based, human
[1] = test system: SMN2 mRNA; assay: RT-qPCR splicing assay, SMN2 canonical junction (CJ) mRNA; conditions: Homo sapiens; Table 5 panel; canonical junction qPCR; compound concentration having 50% response in CJ decrease; read-out: SMN2 IC50 (decrease in CJ mRNA levels)
Protocol: (§1) The expression of a target mRNA was measured by detecting the formation of an exon-exon junction in the canonical transcript (CJ). A compound mediated exon-inclusion event was detected by observing an increase in formation of a new junction with an alternative exon (AJ). Real-time qPCR assays were used to detect these splicing switches and interrogate the potency of various compounds towards different target genes. A high-throughput real time quantitative PCR (RT-qPCR) assay was developed to measure these two isoforms of the mRNA (CJ and AJ) for exemplary genes, such as HTT, SMN2, and MYB, together with a control housekeeping gene, GAPDH or GUSB or PPIA, used for normalization. Briefly, the A673 or K562 cell line was treated with various compounds described herein (e.g., compounds of Formula (I)). After treatment, the levels of the HTT, MYB, or SMN2 mRNA targets were determined from each sample of cell lysate by cDNA synthesis followed by qPCR.
(§2) The A673 cell line was cultured in DMEM with 10% FBS. Cells were diluted with full growth media and plated in a 96-well plate (15,000 cells in 100 ul media per well). The plate was incubated at 37° C. with 5% CO2 for 24 hours to allow cells to adhere. An 11-point 3-fold serial dilution of the compounds was made in DMSO then diluted in media in an intermediate plate. Compounds were transferred from the intermediate plate to the cell plate with the top dose at a final concentration of 10 uM in the well. Final DMSO concentration was kept at or below 0.25%. The cell plate was returned to the incubator at 37° C. with 5% CO2 for an additional 24 hours.
(§3) The K562 cell line was cultured in IMDM with 10% FBS. For K562, cells were diluted with full growth media and plated in either a 96-well plate (50,000 cells in 50 uL media per well) or a 384-well plate (8,000-40,000 cells in 45 uL media per well). An 11-point 3-fold serial dilution of the compounds were made in DMSO then diluted in media in an intermediate plate. Compound was transferred from the intermediate plate to the cell plate with the top dose at a final concentration of 10 uM in the well. Final DMSO concentration was kept at or below 0.25%. Final volume was 100 uL for 96-well plate and 50 uL for 384-well plate. The cell plate was then placed in an incubator at 37° C. with 5% CO2 for 24 hours.
(§4) The cells were then gently washed with 50 uL-100 uL cold PBS before proceeding to addition of lysis buffer. 30 uL-50 uL of room temperature lysis buffer with DNAse I (and optionally RNAsin) was added to each well. Cells were shaken/mixed thoroughly at room temperature for 5-10 minutes for lysis to take place and then 3 uL-5 uL of room temperature stop solution was added and wells were shaken/mixed again. After 2-5 minutes, the cell lysate plate was transferred to ice for RT-qPCR reaction setup. The lysates could also be frozen at −80° C. for later use.
(§5) In some cases, a direct lysis buffer was used. An appropriate volume of 3× lysis buffer (10 mM Tris, 150 mM NaCl, 1.5%-2.5% Igepal and 0.1-1 U/uL RNAsin, pH 7.4) was directly added to either K562 or A673 cells in media and mixed by pipetting 3 times. The plates were then incubated at room temperature with shaking/rocking for 20-50 minutes to allow for lysis to take place. After this time, the cell lysate plate was transferred to ice to set up for the RT-qPCR reactions. The lysates could also be frozen at −80° C. for later use.
(§6) To set up 10 uL RT-qPCR reactions, cell lysates were transferred to 384-well qPCR plates containing the master mix according to the table below. The plates were sealed, gently vortexed, and spun down before the run. The volumes were adjusted accordingly in some instances where the reaction was carried in 20 uL. The table below summarizes the components of the RT-qPCR reactions:
(§7) The RT-qPCR reaction was performed using a QuantStudio (ThermoFisher) under the following fast cycling conditions.

[2] = test system: HTT mRNA; assay: RT-qPCR splicing assay, HTT canonical junction (CJ) and alternative junction (AJ) mRNA; conditions: Homo sapiens; for AC50: increase in HTT alternative junction (AJ) mRNA, read-out: HTT AJ AC50
Protocol: as §1
(§8) • Cells-to-CT 1-step kit: ThermoFisher A25602, Cells-to-CT lysis reagent: ThermoFisher 4391851C, TaqMan™ Fast Virus 1-Step Master Mix: ThermoFisher 4444436 • GAPDH: VIC-PL, ThermoFisher 4326317E (Assay: Hs99999905_m1)—used for K562/suspension cell lines • GUSB: VIC-PL, ThermoFisher 4326320E (Assay: Hs99999908_m1)—used for K562/suspension cell lines • PPIA: VIC-PL, ThermoFisher 4326316E (Assay: Hs99999904_m1)—used for A673/adherent cell lines
as §2, §3, §4, §5

[3] = test system: Target C; assay: RT-qPCR splicing assay panel, Target C canonical junction (CJ) mRNA; conditions: Homo sapiens; Table 5 panel; canonical junction qPCR; compound concentration having 50% response in CJ decrease; read-out: Target C IC50 (decrease in CJ mRNA levels)
Protocol: as §1, §2, §3, §4, §5, §6, §7

[4] = test system: MYB mRNA; assay: RT-qPCR splicing assay, MYB canonical junction (CJ) and alternative junction (AJ) mRNA; conditions: Homo sapiens; for AC50: increase in MYB alternative junction (AJ) mRNA, read-out: MYB AJ AC50
Protocol: as §1, §8, §2, §3, §4, §5

[5] = decrease in HTT canonical junction (CJ) mRNA, RT-qPCR, read-out: HTT CJ IC50
[6] = Table 5 panel, canonical junction qPCR, compound concentration having 50% response in CJ decrease, read-out: HTT IC50 (decrease in CJ mRNA levels)
[7] = Table 5 panel, canonical junction qPCR, compound concentration having 50% response in CJ decrease, read-out: MYB IC50 (decrease in CJ mRNA levels)
[8] = decrease in MYB canonical junction (CJ) mRNA, RT-qPCR, read-out: MYB CJ IC50

Row | Compound | pIC50 [1] | pIC50 [2, 5] | AC50 ([2]; RT-qPCR) | pIC50 [2, 6] | pIC50 [3] | pIC50 [4, 7] | pIC50 [4, 8] | AC50 ([4]; RT-qPCR)
1 | Cc1cn2cc(-c3nc4ccc(N5CCNCC5)cc4c(=O)[nH]3)cc(F)c2n1 [Compound 115] | > 7.00 | < 5.00 | > 10 µM | < 5.00 | < 5.00 | 5.00 to 6.00 | 6.00 to 7.00 | 1 to 10 µM
2 | Cc1cc(-c2nc3ccc(N(C)C4CCNCC4)cc3c(=O)[nH]2)cc2cn(C)nc12 [Compound 121, 2-(2,7-dimethyl-2H-indazol-5-yl)-6-(methyl(piperidin-4-yl)amino)quinazolin-4(3H)-one] | 6.00 to 7.00 | < 5.00 | > 10 µM | 5.00 to 6.00 | < 5.00 | < 5.00 | 5.00 to 6.00 | > 10 µM
3 | Cc1cc(-c2ccc3nc(N4CCNCC4)[nH]c(=O)c3c2)cc2cn(C)nc12 [Compound 166] | 5.00 to 6.00 | 5.00 to 6.00 | 1 to 10 µM | 5.00 to 6.00 | 5.00 to 6.00 | 5.00 to 6.00 | 5.00 to 6.00 | 1 to 10 µM
4 | Cc1cc(-c2ccc3nc(NC4CCN(C)CC4)[nH]c(=O)c3c2)cc2cn(C)nc12 [Compound 167] | < 5.00 | < 5.00 | > 10 µM | < 5.00 | < 5.00 | < 5.00 | < 5.00 | > 10 µM
5 | Cc1cn2nc(-c3ccc4nc(N5CCNC6(CC6)C5)[nH]c(=O)c4c3)cc(C)c2n1 [Compound 190] | 6.00 to 7.00 | 6.00 to 7.00 | 0.1 to 1 µM | 6.00 to 7.00 | 6.00 to 7.00 | 6.00 to 7.00 | 6.00 to 7.00 | 0.1 to 1 µM
6 | Cc1cn2cc(-c3ccc4nc(N5CCNC6(CC6)C5)[nH]c(=O)c4c3)cc(F)c2n1 [Compound 191] | < 5.00 | < 5.00 | > 10 µM | < 5.00 | < 5.00 | < 5.00 | < 5.00 | > 10 µM
7 | Cc1cn2nc(-c3ccc4nc(NC5CCNCC5)[nH]c(=O)c4c3)cc(C)c2n1 [Compound 192] | < 5.00 | < 5.00 | > 10 µM | < 5.00 | < 5.00 | < 5.00 | < 5.00 | > 10 µM
8 | Cc1cn2cc(-c3ccc4nc(NC5CCNCC5)[nH]c(=O)c4c3)cc(F)c2n1 [Compound 238] | < 5.00 | < 5.00 | > 10 µM | < 5.00 | < 5.00 | < 5.00 | < 5.00 | > 10 µM
9 | Cc1cc(-c2nc3ccc(N(C)C4CCN(C)CC4)cc3c(=O)[nH]2)cc2cn(C)nc12 [Compound 239] | 5.00 to 6.00 | < 5.00 | > 10 µM | < 5.00 | < 5.00 | < 5.00 | 5.00 to 6.00 | > 10 µM
10 | Cc1cn2cc(-c3ccc4c(=O)n(C5CCNC(C)C5)cnc4c3)cc(F)c2n1 (stereo not shown) [Compound 323] | > 7.00 | 6.00 to 7.00 | 0.1 to 1 µM | 6.00 to 7.00 | 6.00 to 7.00 | 6.00 to 7.00 | 6.00 to 7.00 | 0.1 to 1 µM
11 | Cc1cn2nc(-c3ccc4c(c3)CCN(C3CCNC(C)C3)C4=O)cc(C)c2n1 (stereo not shown) [Compound 327] | 5.00 to 6.00 | 5.00 to 6.00 | 1 to 10 µM | 5.00 to 6.00 | 5.00 to 6.00 | 5.00 to 6.00 | 5.00 to 6.00 | 1 to 10 µM
12 | Cc1cn2cc(-c3cc(F)c4c(=O)n(C5CCNC6(CC6)C5)ccc4c3)cc(F)c2n1 (stereo not shown) [Compound 471, 2-{4-azaspiro[2.5]octan-7-yl}-8-fluoro-6-{8-fluoro-2-methylimidazo[1,2-a]pyridin-6-yl}isoquinolin-1-one] | 6.00 to 7.00 | < 5.00 | > 10 µM | < 5.00 | < 5.00 | < 5.00 | < 5.00 | > 10 µM
13 | CNCCn1ncc2cc(-c3cc(C)c4nc(C)cn4n3)ccc2c1=O [Compound 472] | > 7.00 | 6.00 to 7.00 | 0.1 to 1 µM | 6.00 to 7.00 | 6.00 to 7.00 | 6.00 to 7.00 | 6.00 to 7.00 | 0.1 to 1 µM
14 | Cc1cn2cc(-c3cc(F)c4c(=O)n([C@H]5CC[C@H](N(C)C)CC5)ccc4c3)cc(F)c2n1 [Compound 654] | > 7.00 | > 7.00 | < 0.1 µM | > 7.00 | 6.00 to 7.00 | > 7.00 | > 7.00 | < 0.1 µM

From patent US20250332173A1, “COMPOUNDS AND METHODS FOR MODULATING NUCLEIC ACID SPLICING” (REMIX THERAPEUTICS INC., priority 2021, published 2025)
